Laboratory results taken from publication PMC5908784, “Extracellular loops 2 and 3 of the calcitonin receptor selectively modify agonist binding and efficacy” (Biochemical Pharmacology, 2018).
Numbering of substitutions follows the chain as printed. Where no end group is shown, it is not given here.

Tests used:
Assay in all cases: Homologous whole cell competition binding
Details in all cases: homologous competition of 125I-sCT(8-32), whole cells, mean ± S.E.M., SEM
[1] = target: T1, hCTR N288A (Homo sapiens, UniProt P30988, N288A)
T1 construct: expressed in transfected cells
T1 sequence (P30988 25-474 N288A): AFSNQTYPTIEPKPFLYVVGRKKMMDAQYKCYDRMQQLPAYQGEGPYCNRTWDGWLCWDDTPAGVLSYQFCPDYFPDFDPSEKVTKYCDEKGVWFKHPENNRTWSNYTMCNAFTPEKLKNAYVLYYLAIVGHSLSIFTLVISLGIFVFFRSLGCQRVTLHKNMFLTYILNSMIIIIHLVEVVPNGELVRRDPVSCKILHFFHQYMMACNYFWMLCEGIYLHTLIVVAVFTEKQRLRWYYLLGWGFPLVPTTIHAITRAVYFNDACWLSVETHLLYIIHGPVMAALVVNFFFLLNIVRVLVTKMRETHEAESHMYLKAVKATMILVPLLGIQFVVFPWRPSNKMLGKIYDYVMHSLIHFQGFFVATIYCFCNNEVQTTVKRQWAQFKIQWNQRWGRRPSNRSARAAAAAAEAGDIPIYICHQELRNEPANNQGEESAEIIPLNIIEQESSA
Outline: (§1)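 Homologous competition, intact cells, 4 °C overnight; tracer ^125I-sCT(8-32) 25–100 pM (two concs) vs cold sCT(8-32); NSB 1 μM cold peptide; γ counter; 3-param logistic IC50 → Cheng-Prusoff pKi; Bmax also estimated.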

[2] = target: T2, hCTR Y299A (Homo sapiens, UniProt P30988, Y299A)
T2 construct: c-Myc (N); expressed in transfected cells
T2 sequence (P30988 25-474 Y299A): T1 sequence (P30988 25-474 N288A) with A264N, Y275A
Outline: as §1

[3] = target: T3, hCTR H296A (Homo sapiens, UniProt P30988, H296A)
T3 construct: c-Myc (N); expressed in transfected cells
T3 sequence (P30988 25-474 H296A): T1 sequence (P30988 25-474 N288A) with A264N, H272A
Outline: as §1

[4] = target: T4, hCTR Y374A (Homo sapiens, UniProt P30988, Y374A)
T4 construct: c-Myc (N); expressed in transfected cells
T4 sequence (P30988 25-474 Y374A): T1 sequence (P30988 25-474 N288A) with A264N, Y350A
Outline: as §1

Ki [1]: 234 pM | Ki [2]: 107 pM | Ki [3]: 269 pM | Ki [4]: 148 pM
Substance: VLGKLSQELHKLQTYPRTNTGSGTP-NH2 [sCT(8-32)]
